Tests used:
Raji cells [1] = assay: MTS viability assay on Raji cells; format: cell-based, human; conditions: increasing concentrations
Method: (§1) The inventors obtained a highly specific pharmacological inhibitor of Syk through a collaboration with Rigel Pharmaceuticals. […] Also tested were the effects of the Syk kinase inhibitor on primary murine BL the inventors obtained from triply transgenic mice (Example 2). In addition, the effects of R408 were tested on three cell lines derived from human BL tumors (Raji, Ramos and Daudi). […] The cells and drug were incubated at a final volume of 200 μl in each well. Each condition was set up in triplicate wells, in any one experiment. […] The plates were read with a Molecular Dynamics ELISA plate reader, at OD 490. The data presented in FIGS. 29A-29D is from one experiment, representative of three independent assays. The error bars represent the standard deviations. […] The cells were cultured for 22 hours with the compound, and pulsed for the last 2 hours with MTS reagent. The O.D.490 absorbance of the wells was determined 24 hours after the beginning of the experiment. All conditions were tested in triplicate wells. The error bars represent the standard deviations of the triplicate wells.
In order to validate the observations obtained in the mouse models of BL, the inventors tested whether the pharmacological inhibition of Syk in a human BL cell line (Raji) also results in the reduced viability of those cells. […]

Raji cells [2] = assay: Apoptosis of Raji cells by propidium iodide stain (subdiploid population); format: cell-based, human; conditions: exposure in vitro
Description: In order to validate the observations obtained in the mouse models of BL, the inventors tested whether the pharmacological inhibition of Syk in a human BL cell line (Raji) also results in the reduced viability of those cells. […] Similar results are observed upon the shRNA-mediated disruption of Syk expression in Raji cells.

[3] = test system: tumors derived from Eμ-MYC mice; assay: In vivo drug candidate test, transplanted Eμ-MYC tumors (no surface BCR); parameters: species or system mouse; conditions: treated for 7 days, starting 21 days after transplant
Description: (§2) Cohorts of age and sex matched, syngeneic mice (C57/BL6) are given transplants of tumor cells administered by tail vein injection (inoculum ranges from 10^2-10^6 cells, but all of the mice in one cohort usually get the same dose of cells). The mice are observed daily for 14-21 days for presentation of externally evident clinical signs of hematological malignancies. These include splenomegaly and lymphadenopathy, dehydration, scruffy fur, hunched posture, labored breathing, and an ascending hind limb paralysis. When the mice are visibly sick, they begin treatment with the drug candidate. The mice are either analyzed 24 hours after the last dose of drug in order to ascertain the degree of remission caused by the drug, in an acute manner, or left in the vivarium to determine the extent of survival that is afforded by the treatment, over the normal rate of mortality for untreated, tumor-bearing mice.
In this experiment, cohorts of 10 mice each were given transplants of tumors derived from Eμ-MYC mice.

[4] = test system: murine BL cell lines (TBL-1, TBL-8, TBL-9, TBL-14); assay: MTS viability assay, murine BL cell lines; format: cell-based, mouse; conditions: 24 hours
Method: as §1
Using this approach, four primary tumors derived from Eμ-MYC/BCR^HEL/sHEL mice have been tested, three cell lines derived from such tumors (TBL-1, TBL-8 and TBL-14), as well as a T-cell lymphoma cell line (iTLS-10). […] The cells were incubated for an MTS assay as described elsewhere herein. […]

[5] = test system: tumors derived from Eμ-MYC/BCR^HEL mice; assay: In vivo drug candidate test, transplanted murine B-CLL tumors; parameters: species or system mouse
Description: In this experiment, cohorts of 20 mice each were given transplants of tumors derived from Eμ-MYC/BCR^HEL (resemble human B-CLL) mice. […] Part of the cohort was euthanized and evaluated for remission acutely (left set of graphs).

[6] = test system: tumors derived from Eμ-MYC/BCR^HEL/sHEL mice; assay: In vivo drug candidate test, transplanted murine BL tumors; parameters: species or system mouse; conditions: transient 7 day treatment, starting 20 days after transplant
Description: as §2
In another experiment, depicted in FIG. 33, cohorts of 10 mice each were given transplants of tumors derived from Eμ-MYC/BCR^HEL/sHEL (resemble human BL) mice. 20 days later, when the mice presented externally evident signs of disease, they were treated for 7 days with R788. This cohort was observed over time for kinetics and time frame of mortality following transient treatment with R788.

[7] = test system: Eμ-MYC, Eμ-MYC/BCR^HEL/sHEL and MMTV-rtTA/TRE-MYC/BCR^HEL/sHEL jaw tumors; conditions: mouse, in vivo
Method: (§3) Groups of 6 mice were utilized for each of the experimental protocols. Four mice bearing transplanted tumors, and two age and sex matched wild type mice were treated with the same drug and equal frequency. The transplant recipient mice were held until tumors became clinically apparent (approximately 100 days for the Eμ-MYC tumors, 58 days for the Eμ-MYC/BCR^HEL tumors, 21 days for the Eμ-MYC/BCR^HEL/sHEL tumors, and 14 days for the MMTV-rtTA/TRE-MYC/BCR^HEL/sHEL tumors). The mice then received daily injections of the indicated agents for 7 days, as applicable. Mice were either euthanized 24 hours after the last injection of drug, or held indefinitely to ascertain survival. Lymph nodes, spleens and bone marrows were collected and processed to generate single cell suspensions. The cells were counted as described above. An aliquot from the cell suspensions was stained with antibodies for B220, Thy 1.2, Mac-1, IgM^a, B7-2, and CD69, in order to determine the proportion of B-cells, T-cells and myeloid cells, as well as the activation status of the HEL-reactive B-cells. Treatments were performed with cyclosporin A (Bedford laboratories, Bedford Ohio) (2 mg/kg/day), FK506 (Prograf, Fujisawa Healthcare, Deerfield, Ill.) (2 mg/kg/day), rapamycin (Biomol, King of Prussia, Pa.) (2 mg/kg/day), and cyclophosphamide (1 mg/kg/day) (Bristol-Myers Squibb, Princeton, N.J.). The therapeutics were suspended in PBS, sterilized by filtration through a 0.22 μm membrane, and administered intravenously through the tail vein.

[8] = test system: MMTV-rtTA/TRE-MYC/BCR^HEL/sHEL tumors (DLBCL); conditions: mouse, in vivo
Method: (§4) Tumor cells were harvested from lymph nodes and spleens and transplanted. The recipient mice were held until tumors became clinically apparent. Tumor recipient (clear bars) and wild type (filled bars) mice then received daily injections of the indicated drugs for 7 days of either cyclosporine A (csa), FK506, rapamycin (rap) or cyclophosphamide (cyph). The mice were euthanized 24 hours after the last injection of drug, and lymph nodes were harvested for analysis of either total number of cells or surface markers of donor cells (not shown).
(§5) Tumor cells were harvested from lymph nodes and spleens and transplanted as described. The recipient mice were held until tumors became clinically apparent. The mice were then either maintained on a normal mouse diet, or switched on to a diet containing doxycycline, that shut off MYC overexpression. The mice were euthanized at the indicated times, and the lymph nodes were collected, used to generate single cell suspensions, cell counts and flow cytometric analysis.
as §3
(§6) 10^6 cells obtained from tumor-bearing spleen or lymph nodes were transplanted into cohorts of 4-10 mice. […] The tumor bearing and control wild-type mice were then treated daily for seven days with intravenous injections of the various drugs. Mice were either euthanized 24 hours after the last injection of drug, or held indefinitely to ascertain survival. The analysis of tumor burden was performed with cells obtained from lymph nodes and spleens.

[9] = test system: MMTV-rtTA/TRE-MYC/BCR^HEL/sHEL tumors (FLL); conditions: mouse, in vivo
Method: as §4, §5, §3, §6

[10] = test system: Eμ-MYC/BCR^HEL/sHEL tumors
Method: as §3, §6

[11] = test system: tumors from the jaws of MMTV-rtTA/TRE-MYC/BCR^HEL/sHEL mice; conditions: daily intravenous injections for 7 days
Method: as §3, §6

Eμ-MYC/BCR^HEL tumors = assay: Therapeutic trial on transplanted Eμ-MYC/BCR^HEL tumors (B-CLL model); format: in vivo, mouse; conditions: daily intravenous injections for 7 days
Method: as §3, with “The therapeutics were suspended in PBS, sterilized by filtration through a 0.22 μm membrane, and administered intravenously through the tail vein.” left out

[12] = daily intravenous injections for 7 days

SMILES: COc1cc(Nc2ncc(F)c(Nc3ccc4c(n3)NC(=O)C(C)(C)O4)n2)cc(OC)c1OC [R406]
- viability of Raji cells (MTS) (Raji cells [1]): dose response decrease in viability
- apoptosis (subdiploid population, propidium iodide) (Raji cells [2]): undergo apoptosis
- survival of tumor-bearing mice [3]: does not extend the survival
- cell viability (MTS) [4]: susceptible

SMILES: COc1cc(Nc2ncc(F)c(Nc3ccc4c(n3)N(COP(=O)(O)O)C(=O)C(C)(C)O4)n2)cc(OC)c1OC [R788]
- survival versus untreated counterparts ([5]; transient 7 day treatment): twice as long
- tumor burden (number of cells in lymph nodes and spleens) ([5]; treated for 7 days, starting 24 days after transplant): significantly decreased the tumor burden
- survival of tumor-bearing mice [3]: perished at the same rate and time frame as their untreated, tumor-bearing counterparts
- survival versus untreated counterparts [6]: at least twice as long

SMILES: O=P1(N(CCCl)CCCl)NCCCO1 (stereo not shown) [cyclophosphamide]
- tumor regression (Eμ-MYC tumors; [12]): tumor regression in all animals
- response of transplanted Eμ-MYC tumors to drug (tumor burden, lymph nodes and spleens) (Eμ-MYC tumors; daily intravenous injections for 7 days, analysed 24 hours after last injection): strong response
- general cytotoxicity (reduction in T-cells, myeloid cells, non-transgenic B-cells) (Eμ-MYC tumors; tumor-bearing mice, 7 days treatment): more general cytotoxicity
- general cytotoxicity (reduction in T cells, myeloid cells, non-transgenic B cells) [7]: more general cytotoxicity
- response of the transplanted tumors to drug [7]: strong response
- tumor regression [7]: tumor regression in each instance
- remission [8]: brief remission
- survival compared with untreated tumor-bearing mice [8]: died more rapidly than did untreated, tumor-bearing mice
- response of transplanted MMTV-rtTA/TRE-MYC/BCR^HEL/sHEL tumors to drug ([8]; iv): responded
- remission [9]: brief remission
- survival compared with untreated tumor-bearing mice [9]: died more rapidly than did untreated, tumor-bearing mice
- response of transplanted MMTV-rtTA/TRE-MYC/BCR^HEL/sHEL tumors to drug ([9]; iv): responded
- remission ([10]; after seven-day treatment): brief remission
- survival compared with untreated tumor-bearing mice ([10]; after seven-day treatment, observed 100 days): died more rapidly than did untreated, tumor-bearing mice
- response of transplanted Eμ-MYC/BCR^HEL/sHEL tumors to drug [10, 12]: responded
- response of transplanted MMTV-rtTA/TRE-MYC/BCR^HEL/sHEL jaw tumors to drug [11]: responded
- response of transplanted Eμ-MYC/BCR^HEL tumors to drug (Eμ-MYC/BCR^HEL tumors): responded

— patent publication US20080070256A1, “Non-Human Animal Models for B-cell Non-Hodgkin's Lymphoma and Uses Thereof” (NATIONAL JEWISH MEDICAL AND RESEARCH CENTER, priority 2006, published 2008)
